# Results from BindingDB's records for patent US10202381 (Celgene Quanticel Research Inc, 2019).
# Target: T1, Lysine-specific demethylase 4C (Homo sapiens, UniProt Q9H3R0)
# T1 sequence (Q9H3R0 whole entry): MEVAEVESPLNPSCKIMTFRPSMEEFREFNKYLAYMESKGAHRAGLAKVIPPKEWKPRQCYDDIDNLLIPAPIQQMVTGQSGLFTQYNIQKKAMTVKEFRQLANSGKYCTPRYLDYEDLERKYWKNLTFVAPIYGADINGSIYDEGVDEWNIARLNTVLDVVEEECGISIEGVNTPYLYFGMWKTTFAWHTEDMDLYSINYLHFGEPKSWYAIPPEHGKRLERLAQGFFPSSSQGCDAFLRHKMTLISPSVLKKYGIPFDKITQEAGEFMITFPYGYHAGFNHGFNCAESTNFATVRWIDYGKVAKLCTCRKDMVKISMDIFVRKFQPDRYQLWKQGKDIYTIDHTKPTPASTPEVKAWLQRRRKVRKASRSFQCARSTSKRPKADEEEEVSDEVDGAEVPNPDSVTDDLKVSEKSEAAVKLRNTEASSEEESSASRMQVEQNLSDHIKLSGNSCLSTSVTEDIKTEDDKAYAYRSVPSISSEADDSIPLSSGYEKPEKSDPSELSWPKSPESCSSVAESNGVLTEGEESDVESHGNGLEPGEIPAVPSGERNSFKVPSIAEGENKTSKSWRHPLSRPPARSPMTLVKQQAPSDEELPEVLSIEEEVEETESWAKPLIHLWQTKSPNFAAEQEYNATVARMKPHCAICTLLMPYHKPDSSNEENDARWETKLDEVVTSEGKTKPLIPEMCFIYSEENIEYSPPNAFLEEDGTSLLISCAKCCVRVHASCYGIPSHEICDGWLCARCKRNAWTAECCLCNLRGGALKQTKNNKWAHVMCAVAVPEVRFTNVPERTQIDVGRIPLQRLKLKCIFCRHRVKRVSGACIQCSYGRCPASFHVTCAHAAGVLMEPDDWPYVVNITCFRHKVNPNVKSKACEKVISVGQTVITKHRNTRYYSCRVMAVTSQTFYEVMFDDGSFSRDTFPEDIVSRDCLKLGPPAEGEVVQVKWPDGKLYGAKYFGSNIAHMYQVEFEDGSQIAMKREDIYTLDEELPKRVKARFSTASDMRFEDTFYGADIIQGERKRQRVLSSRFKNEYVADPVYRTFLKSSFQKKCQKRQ
# Test: JMJD2C Assay
# Experimental: The ability of test compounds to inhibit the activity of JMJD2C was determined in 384-well plate-format under the following reaction conditions: 0.3 nM JMJD2C, 300 nM H3K9me3-biotin labeled peptide (Anaspec cat #64360), 2 μM alpha-ketoglutaric acid in assay buffer of 50 mM HEPES, pH 7.3, 0.005% Brij35, 0.5 mM TCEP, 0.2 mg/ml BSA, 50 μM sodium L-ascorbate, and 2 μM ammonium iron(II) sulfate. Reaction product was determined quantitatively by TR-FRET after the addition of detection reagent Phycolink Streptavidin-allophycocyanin (Prozyme) and Europium-anti-di-methylated histone H3 lysine 9 (H3K9me2) antibody (PerkinElmer) in the presence of 5 mM EDTA in LANCE detection buffer (PerkinElmer) at a final concentration of 50 nM and 1 nM, respectively.The assay reaction was initiated by the following: 2 μl of the mixture of 900 nM H3K9me3-biotin labeled peptide and 6 μM alpha-ketoglutaric acid with 2 μl of 11-point serial diluted inhibitor in 3% DMSO were added to each well of the plate, followed by the addition of 2 μl of 0.9 nM JMJD2C to initiate the reaction. […] Plates were read by EnVisionMultilabel Reader in TR-FRET mode (excitation at 320 nm, emission at 615 nm and 665 nm) after 1 hr incubation at room temperature. A ratio was calculated (665/615) for each well and fitted to determine inhibition constant (IC50).
row,Structure (SMILES),IC50 [nM]
1,"Cc1cc(Oc2nc(O)c3ccncc3n2)ccc1N(C)c1cc(N2CCN(C)CC2)ccc1C [US10202381, Example 147]",< 100
2,"COc1ccc(N2CCN(C)CC2)cc1N(C)c1ccc(Oc2nc(O)c3ccncc3n2)cc1C [US10202381, Example 145]",< 100
